Each structure is given as a SMILES string. The source made the active and inactive calls. The rule behind the calls is not given here.

In the assay the target is Chaperone protein DnaK (Escherichia coli (strain K12)) (UniProt P0A6Y8). Put plainly: E. coli DnaK SBD ligand binding – biophysical, NMR, chaperone (AID 1033). The settings on record: Purified DnaK SBD.
Chain of Chaperone protein DnaK (Escherichia coli (strain K12)) (P0A6Y8 whole entry, looked up): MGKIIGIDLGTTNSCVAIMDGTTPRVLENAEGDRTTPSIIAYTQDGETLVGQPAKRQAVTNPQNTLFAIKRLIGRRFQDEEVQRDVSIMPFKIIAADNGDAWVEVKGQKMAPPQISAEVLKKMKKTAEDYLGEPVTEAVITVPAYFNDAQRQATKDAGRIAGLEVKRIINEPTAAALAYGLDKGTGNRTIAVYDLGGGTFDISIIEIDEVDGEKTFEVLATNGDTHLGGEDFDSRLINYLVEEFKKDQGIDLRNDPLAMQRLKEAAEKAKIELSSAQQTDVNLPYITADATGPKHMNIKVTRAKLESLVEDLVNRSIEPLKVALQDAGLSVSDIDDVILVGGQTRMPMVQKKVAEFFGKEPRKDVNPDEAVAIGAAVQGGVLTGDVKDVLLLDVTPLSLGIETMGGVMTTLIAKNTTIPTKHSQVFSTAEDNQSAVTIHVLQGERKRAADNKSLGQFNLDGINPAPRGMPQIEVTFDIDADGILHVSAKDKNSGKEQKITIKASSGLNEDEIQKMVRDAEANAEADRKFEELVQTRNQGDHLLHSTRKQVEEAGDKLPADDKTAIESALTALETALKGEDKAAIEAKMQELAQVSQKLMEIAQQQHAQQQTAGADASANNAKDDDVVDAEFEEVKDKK
For the compound `O=C1NC(=O)/C(=C/c2ccc(O)cc2)N1`, the Kd was > 4 mM (inactive).

As to `CC(=O)Nc1ccc(N2C(=O)C=CC2=O)cc1C`, the Kd is > 4 mM (inactive).

For the compound `COC(=O)C[C@@H]1C2(C)C(=O)[C@@H](CC3=C4CC(=O)O[C@@H](c5ccoc5)[C@]4(C)CCC32)[C@H](OC(C)=O)C1(C)C` (stereo not given in full), the Kd was > 4 mM (inactive).

With `Cc1ncoc1C(=O)Nc1ncc([N+](=O)[O-])s1`, the Kd was > 4 mM (inactive).

As to `CC(=O)O[C@H]1C(=O)[C@@]2(C)C([C@H](OC(=O)c3ccccc3)[C@]3(O)C[C@H](OC(=O)[C@H](O)[C@@H](NC(=O)c4ccccc4)c4ccccc4)C(C)=C1C3(C)C)[C@]1(OC(C)=O)CO[C@@H]1C[C@@H]2O` (stereo not given in full), the Kd is > 4 mM (inactive).

Regarding `Cc1noc(C)c1C(=O)N1CCc2ccccc21`, the Kd was > 4 mM (inactive).

On to `Cc1ccc(SCc2nc(-c3ccncc3)no2)cc1`, for which the Kd is > 4 mM (inactive).

With `C=C[C@@](C)(O)CCC1C(=C)CCC2[C@@](C)(CO)CCC[C@]12C` (stereo not given in full), the Kd is > 4 mM (inactive).

On to `Cc1cc(Oc2ccccc2)nc(N)n1`, for which the Kd is > 4 mM (inactive).

Turning to `CSc1ncc(C(=O)O)n1Cc1ccccc1`, the Kd is > 4 mM (inactive).

Take `O=C(NC1CCS(=O)(=O)C1)c1cccs1` (stereo not given): the Kd is > 4 mM (inactive).

For the compound `Nc1ccncc1`, the Kd was > 4 mM (inactive).

With `Cc1cc(C(F)(F)F)nn1CC(N)=O`, the Kd is > 4 mM (inactive).

In the case of `C=C(C)C1CC=C(CO)CC1` (stereo not given), the Kd is > 4 mM (inactive).

For the compound `CC(=O)c1ccc(CC2SC(N)=NC2=O)cc1` (stereo not given), the Kd was > 4 mM (inactive).

On to `O=C(O)Cn1cnc2ccccc2c1=O`, for which the Kd is > 4 mM (inactive).

Turning to `Cc1ncoc1C(=O)Nc1ccccc1C(N)=O`, the Kd was > 4 mM (inactive).

For `Cc1cccc(-n2c(N)cc(=O)[nH]c2=S)c1C`, the Kd was > 4 mM (inactive).

Consider `Cc1ccc(-c2nn3c(C)nnc3s2)cc1N`, for which the Kd was > 4 mM (inactive).

As for `CNC[C@@H](O)c1ccc(O)c(O)c1`, the Kd is > 4 mM (inactive).

With `COC(=O)CCSCC(=O)Nc1nccs1`, the Kd is > 4 mM (inactive).

For `Cc1occc1C(=O)Nc1sccc1C(N)=O`, the Kd is > 4 mM (inactive).

Turning to `O=C(Nc1ccccc1)c1cccc(N2C(=O)CCC2=O)c1`, the Kd is > 4 mM (inactive).

On to `CCOC(=O)c1cnc2sccn2c1=O`, for which the Kd is > 4 mM (inactive).

In the case of `COc1cc2c(cc1OC)[C@@H]1C(=O)c3ccc4c(c3O[C@@H]1CO2)C=CC(C)(C)O4`, the Kd is > 4 mM (inactive).

For `O=C(O)C1CCN(c2ccc(C(F)(F)F)cn2)CC1`, the Kd is > 4 mM (inactive).

`CN1CCC[C@H]1c1cccnc1`: the Kd was > 4 mM (inactive).

As for `Cc1cc(=O)[nH]c2ccccc12`, the Kd is > 4 mM (inactive).

Consider `CN(C)S(=O)(=O)N1CCc2ccccc21`, for which the Kd is > 4 mM (inactive).

Regarding `CS(=O)(=O)c1cccc(C(=O)Nc2nccs2)c1`, the Kd was > 4 mM (inactive).

Take `Cc1ccc(-c2c(C)n([O-])c3c([n+]2=O)CCCC3)o1`: the Kd was > 4 mM (inactive).

On to `c1ccc(SCc2nc(-c3ccccn3)no2)cc1`, for which the Kd is > 4 mM (inactive).

Regarding `Cc1cc(=O)[nH]c(NCC(=O)O)n1`, the Kd was > 4 mM (inactive).

For `Nc1nc(-c2nc3ccccc3[nH]2)cs1`, the Kd is > 4 mM (inactive).

As for `Cn1nc(-c2ccccc2)cc1N`, the Kd was > 4 mM (inactive).

For the compound `Oc1ccccc1-c1cc(C(F)(F)F)[nH]n1`, the Kd is > 4 mM (inactive).

Turning to `C=C[C@H]1CN2CC[C@H]1C[C@@H]2[C@H](O)c1ccnc2ccccc12`, the Kd was > 4 mM (inactive).

As to `O=C(O)c1ccc(CN2CCOCC2)cc1`, the Kd is > 4 mM (inactive).

As to `CC(=O)Nc1ccc2c(c1)n(C)c(=O)n2C`, the Kd was > 4 mM (inactive).

Consider `NC(=O)c1ccc(N2C(=O)CCC2=O)cc1Cl`, for which the Kd was > 4 mM (inactive).

In the case of `COC(=O)Cc1cc(=O)n(-c2ccccc2)[nH]1`, the Kd was > 4 mM (inactive).

For the compound `O=c1cnnc(Nc2ccc(O)cc2)[nH]1`, the Kd is > 4 mM (inactive).

For the compound `COc1ccccc1/C=C\C(=O)O`, the Kd is > 4 mM (inactive).

`COC(=O)C(O)c1ccccc1` (stereo not given): the Kd was > 4 mM (inactive).

With `O=S(=O)(c1cccc2cccnc12)N1CCOCC1`, the Kd was > 4 mM (inactive).

For the compound `N=C1/C(=C\c2ccco2)C(=O)N=C2SC=NN12`, the Kd is > 4 mM (inactive).

As for `COc1ccc([C@H]2COc3c(ccc(O)c3OC)C2)c(OC)c1O`, the Kd was > 4 mM (inactive).

Take `CSc1nnc(-c2ccccc2NC(C)=O)o1`: the Kd was > 4 mM (inactive).

Regarding `CN1CCCn2c1nc1c2c(=O)[nH]c(=O)n1C`, the Kd was > 4 mM (inactive).

For the compound `CNC(=O)C(=O)Nc1ccc(C)c(C)c1`, the Kd was > 4 mM (inactive).

In the case of `CC(C)[C@@H]1CC[C@@H](C)C[C@H]1OC(=O)c1ccccc1`, the Kd was > 4 mM (inactive).

For the compound `C=C[C@](C)(O)CCC=C(C)C`, the Kd was > 4 mM (inactive).

Turning to `Cc1ccccc1NC(=O)CC1NCCNC1=O` (stereo not given), the Kd is > 4 mM (inactive).

As to `Cc1cc(C(=O)Nn2cnnc2)cs1`, the Kd is > 4 mM (inactive).

In the case of `O=C(O)C1=Cc2ccccc2OC1`, the Kd is > 4 mM (inactive).

`Cc1nnc(NCCN2CCOCC2)[nH]c1=O`: the Kd was > 4 mM (inactive).

With `NS(=O)(=O)c1ccc(N=Cc2cccs2)cc1`, the Kd is > 4 mM (inactive).

`O=C(CCc1ccc(O)cc1)c1c(O)cc(O)cc1O`: the Kd is > 4 mM (inactive).

Turning to `COc1c2ccoc2c(OC)c2oc(=O)ccc12`, the Kd is > 4 mM (inactive).

For the compound `CN1CCN(Cc2cccnc2)CC1`, the Kd was > 4 mM (inactive).

As for `O=C(CSc1ccc(Cl)cc1)N1CCOCC1`, the Kd is > 4 mM (inactive).

`CC1/C(=N/O)C[C@@H]2C[C@H]1C2(C)C` (stereo not given in full): the Kd is > 4 mM (inactive).

Regarding `Cc1cc(C(=O)Nc2sc3c(c2C#N)CCC3)no1`, the Kd is > 4 mM (inactive).

As for `Cc1ccc(NC(=O)C2CCCNC2=O)nc1` (stereo not given), the Kd was > 4 mM (inactive).

For `Cn1ccc(C(=O)NC(=S)NN2CCOCC2)n1`, the Kd was > 4 mM (inactive).

Consider `CCOC(=O)c1[nH]c(C)cc1C`, for which the Kd is > 4 mM (inactive).

For `NC(=O)CC[C@H](N)C(=O)O`, the Kd is > 4 mM (inactive).

Turning to `Cc1nnc(C)n1/N=C/c1cccs1`, the Kd was > 4 mM (inactive).

Consider `O=C(NCc1ccccc1)c1cnsn1`, for which the Kd is > 4 mM (inactive).

For the compound `CS(=O)(=O)c1nncn1-c1ccccc1`, the Kd was > 4 mM (inactive).

As to `NCC1COc2ccccc2O1` (stereo not given), the Kd was > 4 mM (inactive).

Consider `Fc1ccc(F)c(CN2CCN(c3ncccn3)CC2)c1`, for which the Kd was > 4 mM (inactive).

For `CCCNC(=O)CSc1ncccc1C(=O)O`, the Kd was > 4 mM (inactive).

In the case of `O=c1nc(N2CCCCC2)nc2n1CCO2`, the Kd is > 4 mM (inactive).

Turning to `COc1cc(O)c(C(=O)c2ccccc2)cc1O`, the Kd was > 4 mM (inactive).

These data come from PubChem BioAssay AID1033 (Sanford-Burnham Center for Chemical Genomics, 2008).
